{"source": "patent US12708655B2", "about": "“Botanicals as WNT/beta-catenin activators, molecular pathway regulators, tissue regenerators and health biomarker regulators” (Arbor Life Holdings, Ltd., priority 2020, dated 2026)", "key": {"[1]": {"test_system": "human dermal papilla cells", "conditions": "in vitro; cited from earlier work"}, "androgen receptor": {"target": "T1, androgen receptor (Homo sapiens, UniProt P10275)", "T1 construct": "nuclear translocation of the androgen receptor stimulated by DHT in human dermal papilla cells; host or cells: human dermal papilla cells", "T1 sequence (P10275 1-920)": "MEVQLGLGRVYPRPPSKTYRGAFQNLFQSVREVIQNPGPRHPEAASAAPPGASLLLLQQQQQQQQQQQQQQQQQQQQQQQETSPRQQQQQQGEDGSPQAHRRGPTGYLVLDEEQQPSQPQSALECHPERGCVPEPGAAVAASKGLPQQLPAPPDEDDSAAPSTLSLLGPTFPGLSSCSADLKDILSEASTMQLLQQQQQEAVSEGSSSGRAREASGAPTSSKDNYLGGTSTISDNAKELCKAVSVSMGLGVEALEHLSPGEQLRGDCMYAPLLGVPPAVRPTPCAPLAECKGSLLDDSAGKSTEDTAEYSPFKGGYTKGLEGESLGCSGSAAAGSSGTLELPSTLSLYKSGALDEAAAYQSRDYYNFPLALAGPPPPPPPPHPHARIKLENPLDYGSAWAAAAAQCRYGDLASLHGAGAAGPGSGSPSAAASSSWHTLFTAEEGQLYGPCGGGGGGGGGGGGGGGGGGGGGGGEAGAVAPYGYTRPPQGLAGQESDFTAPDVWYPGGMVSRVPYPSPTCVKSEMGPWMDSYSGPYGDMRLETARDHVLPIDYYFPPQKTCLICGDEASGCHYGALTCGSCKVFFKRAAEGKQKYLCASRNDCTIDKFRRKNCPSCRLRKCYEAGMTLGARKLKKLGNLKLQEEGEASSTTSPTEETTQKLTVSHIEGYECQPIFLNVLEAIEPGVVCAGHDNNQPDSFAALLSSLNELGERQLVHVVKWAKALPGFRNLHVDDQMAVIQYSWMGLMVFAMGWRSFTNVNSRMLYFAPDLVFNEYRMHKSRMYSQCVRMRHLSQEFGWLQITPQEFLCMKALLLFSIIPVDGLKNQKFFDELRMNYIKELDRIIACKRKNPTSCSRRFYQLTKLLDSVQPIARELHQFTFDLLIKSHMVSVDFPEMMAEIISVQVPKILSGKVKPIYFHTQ", "conditions": "human dermal papilla cells; cited from earlier work"}, "[2]": {"test_system": "LNCaP prostate cancer cells", "conditions": "cells stimulated by DHT; cited from earlier work"}, "[3]": {"test_system": "androgentic alopecia and telogen effluvium in Women", "conditions": "adjusted to 24 weeks, from clinical trial or systematic review; cited from earlier work"}, "[4]": {"test_system": "androgenetic alopecia and telogen effluvium in Men", "assay": "Comparative analysis of clinical trial results in men versus standard of care, adjusted to 24 weeks", "format": "in vivo, human"}, "[5]": {"test_system": "androgentic alopecia and telogen effluvium in Women", "assay": "Comparative analysis of clinical trial results in women versus standard of care, adjusted to 24 weeks", "format": "in vivo, human"}, "[6]": {"test_system": "androgenetic alopecia and telogen effluvium in Men", "conditions": "adjusted to 24 weeks, cited from earlier work"}}, "data": [{"smiles": "O=C(O)[C@H]1O[C@@H](Oc2cc3oc(-c4ccccc4)cc(=O)c3c(O)c2O)[C@H](O)[C@@H](O)[C@@H]1O", "note": "[baicalin]", "values": [{"measurement": "proliferation of human dermal papilla cells", "setting": "[1]", "result": "enhanced proliferation"}, {"measurement": "nuclear translocation of the androgen receptor stimulated by DHT", "setting": "androgen receptor", "result": "inhibited"}, {"measurement": "overgrowth of LNCaP prostate cancer cells", "setting": "[2]", "result": "dose-dependently inhibited"}]}, {"smiles": "CC(C)(C)NC(=O)[C@H]1CC[C@H]2[C@@H]3CC[C@H]4NC(=O)C=C[C@]4(C)[C@H]3CC[C@]12C", "note": "[finasteride 1 mg, finasteride]", "values": [{"measurement": "Changes in Terminal Hairs per sq.cm, difference between active and placebo groups", "setting": "[3]", "result": "−1.0", "unit": "per sq.cm"}, {"measurement": "Efficacy Factor Multiple vs 2% Minoxidil", "setting": "[4]", "result": 1.0}, {"measurement": "Efficacy Factor Multiple vs 2% Minoxidil", "setting": "[5]", "result": "−0.1"}, {"measurement": "Changes in Terminal Hairs per sq.cm vs placebo", "setting": "[6]; from clinical trial or systematic review", "result": 6.4, "unit": "per sq.cm"}, {"measurement": "Changes in Terminal hair count per sq·cm versus placebo, comparators", "setting": "[6]; systematic reviews of randomized controlled trials", "result": 6.4, "unit": "per sq·cm"}]}]}
